Paper PMC11942566, “Next-Generation Analogues of AC265347 as Positive Allosteric Modulators of the Calcium-Sensing Receptor: Pharmacological Investigation of Structural Modifications at the Stereogenic Centre” (International Journal of Molecular Sciences, 2025)
Where two headings read alike, the source gives them in different places. Values belong to the compound of their own block, whether it stands above or below them.

Assays:
[1] = biological target: T1, wild-type human CaSR (calcium-sensing receptor) (Homo sapiens, UniProt P41180); assay: Ca2+i mobilisation (Fluo-8), operational model of allosteric modulation; format: cell-based; details: for Kb: read-out: pKB ± SEM (KB) (converted)
T1 construct: full-length wild-type, cmyc-tagged
T1 sequence (P41180 20-1078): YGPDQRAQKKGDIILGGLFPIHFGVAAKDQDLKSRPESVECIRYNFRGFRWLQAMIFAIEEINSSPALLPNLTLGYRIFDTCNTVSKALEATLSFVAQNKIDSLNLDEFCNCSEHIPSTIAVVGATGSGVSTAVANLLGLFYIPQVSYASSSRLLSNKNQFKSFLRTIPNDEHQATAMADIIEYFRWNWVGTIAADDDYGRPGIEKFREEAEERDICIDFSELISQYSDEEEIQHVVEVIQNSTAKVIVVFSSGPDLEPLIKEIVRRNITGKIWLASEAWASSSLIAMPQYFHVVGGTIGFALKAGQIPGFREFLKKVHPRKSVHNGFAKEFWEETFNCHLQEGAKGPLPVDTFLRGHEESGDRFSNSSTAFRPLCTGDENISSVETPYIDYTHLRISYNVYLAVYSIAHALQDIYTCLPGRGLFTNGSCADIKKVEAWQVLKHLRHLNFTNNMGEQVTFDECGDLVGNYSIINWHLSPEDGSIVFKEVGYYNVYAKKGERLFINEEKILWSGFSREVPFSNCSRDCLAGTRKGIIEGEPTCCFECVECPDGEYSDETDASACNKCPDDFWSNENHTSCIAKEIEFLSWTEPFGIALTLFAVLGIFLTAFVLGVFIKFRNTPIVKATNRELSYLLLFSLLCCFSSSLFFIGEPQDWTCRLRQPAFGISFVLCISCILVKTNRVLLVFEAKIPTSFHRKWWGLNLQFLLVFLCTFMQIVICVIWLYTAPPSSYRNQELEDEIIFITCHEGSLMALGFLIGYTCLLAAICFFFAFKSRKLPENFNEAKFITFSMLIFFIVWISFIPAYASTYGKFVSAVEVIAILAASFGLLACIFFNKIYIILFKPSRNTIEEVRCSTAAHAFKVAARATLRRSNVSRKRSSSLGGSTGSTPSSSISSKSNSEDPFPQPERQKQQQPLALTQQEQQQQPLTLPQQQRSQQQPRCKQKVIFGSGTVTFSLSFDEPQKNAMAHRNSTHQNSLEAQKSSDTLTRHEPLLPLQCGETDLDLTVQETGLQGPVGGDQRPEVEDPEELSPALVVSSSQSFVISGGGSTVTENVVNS
Source text: Ca2+i mobilisation (Fluo-8), operational model of allosteric modulation on wild-type human CaSR (calcium-sensing receptor)

[2] = biological target: T1, wild-type human CaSR (calcium-sensing receptor); assay: Ca2+i mobilisation (Fluo-8), four-parameter sigmoidal fit with shared Hill slope; format: cell-based; details: positive allosteric modulation of Ca2+o response, pH 7.4, 37 °C; KB not determinable
[3] = functional affinity estimate (from pKB), positive allosteric modulator, allosteric site, Ca2+o as orthosteric agonist, pH 7.4, 37 °C, reanalysis of the authors' previously published data, cited from earlier work

- Kb [1]: 29 µM
SMILES: Cc1ccc(C2(c3nc4ccccc4s3)CO2)c(C)c1 (racemic) [compound 6, 2-(2-(2,4-Dimethylphenyl)oxiran-2-yl)benzo[d]thiazole]

- Kb [1]: 10 µM
SMILES: Cc1ccc(C(C)(F)c2nc3ccccc3s2)c(C)c1 (racemic) [compound 9, 2-(1-(2,4-Dimethylphenyl)-1-fluoroethyl)benzo[d]thiazole]

- fold increase in Ca2+o potency (pEC50) at 10 μM [2]: 1.8 fold
SMILES: COC(C)(c1nc2ccccc2s1)c1ccc(C)cc1C (racemic) [compound 8, 2-(1-(2,4-Dimethylphenyl)-1-methoxyethyl)benzo[d]thiazole]

- pKB ± SEM (KB, μM) ([1]; functional affinity estimate (from pKB), positive allosteric modulator, allosteric site, Ca2+o as orthosteric agonist, pH 7.4, 37 °C, unreliable (extrapolated beyond highest tested concentration 30 μM)): 123 μM
SMILES: Cc1ccc(C2(c3nc4ccccc4s3)CCO2)c(C)c1 (racemic) [compound 7, 2-(2-(2,4-Dimethylphenyl)oxetan-2-yl)benzo[d]thiazole]

SMILES: Cc1ccc(C(C)(O)c2nc3ccccc3s2)c(C)c1 (racemic) [compound 1, 1-(Benzo[d]thiazol-2-yl)-1-(2,4-dimethylphenyl)ethan-1-ol]
- Kb [1, 3]: 3.4 µM

- Kb [1]: 8.1 µM
SMILES: C=CC(O)(c1nc2ccccc2s1)c1ccc(C)cc1C (racemic) [7b, 1-(Benzo[d]thiazol-2-yl)-1-(2,4-dimethylphenyl)prop-2-en-1-ol]

SMILES: Cc1ccc(C(O)(c2nc3ccccc3s2)C(F)(F)F)c(C)c1 (racemic) [compound 5, 5]
- Kb [1, 3]: 5 µM
